Measured values from US9593122B2, “Substituted pyrazolylpyrazole derivative and use of same as herbicide” (KYOYU AGRI CO., LTD., priority 2013, dated 2017).

Columns and labels:
Assay in all cases: Paddy herbicidal activity test
Type in all cases: in vivo
Echinochloa crus-galli = conditions: irrigated paddy pot, treated at 3.5 leaf stage of Echinochloa crus-galli, 30 days
Experimental: (§1) Rice paddy soil was filled into a 1/10000 are pot followed by the addition of suitable amounts of water and chemical fertilizer, kneading, seeding with Echinochloa crus-galli, Monochoria vaginalis and Scirpus juncoides and maintaining in an irrigated state at a water depth of 3 cm.
(§2) Wettable powder of Target Compound (I) shown in Table 1 prepared in compliance with the preparation examples were diluted with a suitable amount of water, rice plants in the 2.0 leaf stage were transplanted during 3.5 leaf stage of Echinochloa crus-galli, and treated by dropping in chemical in the prescribed amount per are using a pipette.
(§3) After treating for 30 days in a glass greenhouse at an average atmospheric temperature of 30° C., the herbicidal efficacy thereof was investigated.
(§4) Evaluation of herbicidal efficacy was carried out by comparing growth inhibition rate (%) with an untreated group, while evaluation of phytotoxicity was carried out by comparing growth inhibition rate (%) with the state of a complete eradication group, and were evaluated at 11 levels indicated below.

Monochoria vaginalis = conditions: irrigated paddy pot, 30 days
Experimental: as §1, §2, §3, §4

Scirpus juncoides = conditions: irrigated paddy pot, 30 days
Experimental: as §1, §2, §3, §4

Row | Compound | Echinochloa crus-galli herbicidal efficacy (growth inhibition level) (Echinochloa crus-galli; 1g a.i./10a) | Echinochloa crus-galli herbicidal efficacy (growth inhibition level) (Echinochloa crus-galli; 5g a.i./10a) | Monochoria vaginalis herbicidal efficacy (growth inhibition level) (Monochoria vaginalis; 1g a.i./10a) | Monochoria vaginalis herbicidal efficacy (growth inhibition level) (Monochoria vaginalis; 5g a.i./10a) | Scirpus juncoides herbicidal efficacy (growth inhibition level) (Scirpus juncoides; 1g a.i./10a) | Scirpus juncoides herbicidal efficacy (growth inhibition level) (Scirpus juncoides; 5g a.i./10a)
1 | CC=CCNc1c([N+](=O)[O-])cnn1-c1nn2c(c1Cl)CCCC2 (mixture of isomers) [Compound 34] | 9 (9: 90% to less than 100%) | 9 (9: 90% to less than 100%) | 9 (9: 90% to less than 100%) | 9 (9: 90% to less than 100%) | 8 (8: 80% to less than 90%) | 8 (8: 80% to less than 90%)
2 | C=CCN(C(=O)C(F)(F)C(F)(F)F)c1c(C#N)cnn1-c1nn2c(c1Cl)CCCC2 [Compound 28] | 9 (9: 90% to less than 100%) | 9 (9: 90% to less than 100%) | 8 (8: 80% to less than 90%) | 10 (10: 100%) | 8 (8: 80% to less than 90%) | 9 (9: 90% to less than 100%)
3 | CC=CCN(C(=O)C(F)(F)F)c1c([N+](=O)[O-])cnn1-c1nn2c(c1Cl)CCCC2 (mixture of isomers) [Compound 40] | 8 (8: 80% to less than 90%) | 9 (9: 90% to less than 100%) | 8 (8: 80% to less than 90%) | 8 (8: 80% to less than 90%) | 7 (7: 70% to less than 80%) | 8 (8: 80% to less than 90%)
4 | C=CCN(C(=O)C(F)(F)F)c1c(C#N)cnn1-c1nn2c(c1Br)CCCC2 [Compound 49] | 8 (8: 80% to less than 90%) | 9 (9: 90% to less than 100%) | 7 (7: 70% to less than 80%) | 9 (9: 90% to less than 100%) | 8 (8: 80% to less than 90%) | 9 (9: 90% to less than 100%)
5 | CC(C)=CCN(C(=O)C(F)(F)F)c1c(C#N)cnn1-c1nn2c(c1Cl)CCCC2 [Compound 25] | 9 (9: 90% to less than 100%) | 10 (10: 100%) | 9 (9: 90% to less than 100%) | 9 (9: 90% to less than 100%) | 8 (8: 80% to less than 90%) | 8 (8: 80% to less than 90%)
6 | C=C(C)CNc1c([N+](=O)[O-])cnn1-c1nn2c(c1Cl)CCCC2 [Compound 31] | 9 (9: 90% to less than 100%) | 9 (9: 90% to less than 100%) | 9 (9: 90% to less than 100%) | 9 (9: 90% to less than 100%) | 7 (7: 70% to less than 80%) | 8 (8: 80% to less than 90%)
7 | N#Cc1cnn(-c2nn3c(c2Br)CCCC3)c1NC/C=C\Cl [Compound 45] | 9 (9: 90% to less than 100%) | 9 (9: 90% to less than 100%) | 9 (9: 90% to less than 100%) | 9 (9: 90% to less than 100%) | 9 (9: 90% to less than 100%) | 9 (9: 90% to less than 100%)
8 | N#Cc1cnn(-c2nn3c(c2Cl)CCCC3)c1NCC(Cl)=CCl (mixture of isomers) [Compound 11] | 8 (8: 80% to less than 90%) | 9 (9: 90% to less than 100%) | 8 (8: 80% to less than 90%) | 9 (9: 90% to less than 100%) | 7 (7: 70% to less than 80%) | 8 (8: 80% to less than 90%)
9 | CC=CCCN(C(=O)C(F)(F)F)c1c(C#N)cnn1-c1nn2c(c1Cl)CCCC2 (mixture of isomers) [Compound 26] | 9 (9: 90% to less than 100%) | 9 (9: 90% to less than 100%) | 8 (8: 80% to less than 90%) | 9 (9: 90% to less than 100%) | 7 (7: 70% to less than 80%) | 8 (8: 80% to less than 90%)
10 | C=CCCN(C(=O)C(F)(F)F)c1c(C#N)cnn1-c1nn2c(c1Br)CCCC2 [Compound 50] | 9 (9: 90% to less than 100%) | 10 (10: 100%) | 7 (7: 70% to less than 80%) | 9 (9: 90% to less than 100%) | 7 (7: 70% to less than 80%) | 8 (8: 80% to less than 90%)
11 | C=CCCN(C(=O)C(F)(F)F)c1c(C#N)cnn1-c1nn2c(c1Cl)CCCC2 [Compound 18] | 9 (9: 90% to less than 100%) | 9 (9: 90% to less than 100%) | 8 (8: 80% to less than 90%) | 9 (9: 90% to less than 100%) | 7 (7: 70% to less than 80%) | 8 (8: 80% to less than 90%)
12 | N#Cc1cnn(-c2nn3c(c2Cl)CCCC3)c1N(CC(Cl)=CCl)C(=O)C(F)(F)F (mixture of isomers) [Compound 23] | 8 (8: 80% to less than 90%) | 9 (9: 90% to less than 100%) | 8 (8: 80% to less than 90%) | 9 (9: 90% to less than 100%) | 7 (7: 70% to less than 80%) | 8 (8: 80% to less than 90%)
13 | C=CCN(C(=O)C(F)(F)F)c1c(C#N)cnn1-c1nn2c(c1Cl)CCCC2 [Compound 17] | 9 (9: 90% to less than 100%) | 10 (10: 100%) | 8 (8: 80% to less than 90%) | 8 (8: 80% to less than 90%) | 9 (9: 90% to less than 100%) | 9 (9: 90% to less than 100%)
14 | CC(C)=CCNc1c(C#N)cnn1-c1nn2c(c1Cl)CCCC2 [Compound 13] | 9 (9: 90% to less than 100%) | 10 (10: 100%) | 8 (8: 80% to less than 90%) | 9 (9: 90% to less than 100%) | 8 (8: 80% to less than 90%) | 8 (8: 80% to less than 90%)
15 | N#Cc1cnn(-c2nn3c(c2Cl)CCCC3)c1NC/C=C\Cl [Compound 7] | 9 (9: 90% to less than 100%) | 9 (9: 90% to less than 100%) | 9 (9: 90% to less than 100%) | 9 (9: 90% to less than 100%) | 7 (7: 70% to less than 80%) | 8 (8: 80% to less than 90%)
16 | CC=CCNc1c([N+](=O)[O-])cnn1-c1nn2c(c1Br)CCCC2 (mixture of isomers) [Compound 57] | 9 (9: 90% to less than 100%) | 10 (10: 100%) | 8 (8: 80% to less than 90%) | 9 (9: 90% to less than 100%) | 7 (7: 70% to less than 80%) | 8 (8: 80% to less than 90%)
17 | O=C(N(C/C=C\Cl)c1c([N+](=O)[O-])cnn1-c1nn2c(c1Cl)CCCC2)C(F)(F)F [Compound 39] | 9 (9: 90% to less than 100%) | 10 (10: 100%) | 7 (7: 70% to less than 80%) | 8 (8: 80% to less than 90%) | 8 (8: 80% to less than 90%) | 8 (8: 80% to less than 90%)
